Laboratory results as given in patent US5612188A, “Automated, multicompartmental cell culture system” (Cornell Research Foundation, Inc., priority 1994, dated 1997).
Where two headings read alike, the source gives them in different places.

What was measured:
[1] = test system: lung GSH; details: after BSO, before 200 mg/kg naphthalene; cited from earlier work
[2] = test system: liver GSH; details: cited from earlier work
[3] = Biotransformation of naphthalene by mouse lung microsomes; format: in vitro ADME; details: mouse, lung microsomes
Protocol: (§1) Biotransformation rates of naphthalene at initial concentrations of 0.05, 0.1 and 1.0 mM by lung and liver microsomes have been determined (O'Brien, et al. (1985), supra, Buckpitt, A. R., Bahnson, L. S., and Franklin, R. B., "Hepatic and Pulmonary Microsomal Metabolism of Naphthalene to Glutathione Adducts: Factors Affecting the Relative Rates of Conjugate Formation", J. Pharmacol. Exp. Ther. 231: 291-300 (1984), which is hereby incorporated by reference), and Buckpitt, A. R., Castagnoli, Jr., N., Nelson, et al., "Stereoselectivity of Naphthalene Epoxidation by Mouse, Rat, and Hamster Pulmonary, Hepatic and Renal Microsomal Enzymes", Drug Metab. Dispos. 15: 491-498 (1987), which is hereby incorporated by reference). Assuming Michaelis-Menten kinetics, fitting s/v vs s was used to provide Vmax and Km values. Since mouse liver produces the 1R,2S- and 1S,2R-naphthalene oxide enantiomers in equal amounts at all substrate concentrations (Buckpitt, et al., 1987, supra), the calculated Vmax was divided by two to give the production rates for each enantiomer.
(§2) For the lung, the biotransformation of naphthalene was modeled as the sum of two separate reactions, each producing a different enantiomer, with the Vmax's summing to the value calculated as described above.

[4] = test system: mouse lung microsomes; assay: as above; format: in vitro ADME
Protocol: as §1, §2

[5] = Biotransformation of naphthalene by mouse liver microsomes; format: in vitro ADME; details: mouse, liver microsomes; read-out: Km, N to 1R, 2S NO
Protocol: as §1

[6] = test system: mouse liver microsomes; assay: as above; format: in vitro ADME; details: Mouse, Liver
Protocol: as §1

[7] = Biotransformation of naphthalene by rat lung microsomes; format: in vitro ADME
Description: (§3) Determination of Vmax's and Km's for naphthalene oxide production and Vmax's for GSH conjugates and dihydrodiol production in rat microsomes were done in the same way as for the mouse. Sources of data were Buckpitt, et al, 1987, supra, Hesse, S. and Mezger, M., "Involvement of Phenolic Metabolites in the Irreversible Protein-binding of Aromatic Hydrocarbons: Reactive Metabolites of [^14 C]-naphthalene and [^14 C] 1-naphthol Formed by Rat Liver Microsomas", Mol. Pharmacol. 16: 667-675 (1979) which is hereby incorporated by reference, O'Brien et al., 1985, supra, van Bladeren et al., 1985, supra, and Yost, G. S., Buckpitt, A. R., Roth, R. A., and McLemore, T. L., "Mechanisms of Lung Injury by Systematically Administered Chemicals", Toxicol. Appl. Pharmacol. 101: 179-195 (1989), which is hereby incorporated by reference.

[8] = Biotransformation of naphthalene by rat liver microsomes; format: in vitro ADME
Description: as §3

[9] = test system: CD-1 mice; details: po, cited from earlier work
[10] = test system: Sherman rats; details: po, cited from earlier work
[11] = test system: Clara cells of the lung; details: similar binding levels in lung and liver; cited from earlier work
[12] = test system: mouse lung microsomes; details: cited from earlier work
[13] = test system: mouse liver microsomes; details: cited from earlier work
[14] = test system: mouse liver microsomes; details: Observed; 1 mM naphthalene, 5 mM GSH; cited from earlier work
[15] = test system: liver GSH; details: 200 mg/kg oral, rat, 6 1/2 hours; observed; cited from earlier work
[16] = test system: mouse liver; details: 200 mg/kg naphthalene, cited from earlier work
[17] = test system: mouse lung; details: cited from earlier work; for Covalent binding in the lung: Male Swiss-Webster mouse, ip
[18] = Lung, Experiment, 0.1 mM naphthalene, 6 minutes
[19] = [N] 1.0 mM, Buckpitt et al., 1987
[20] = Liver, Experiment, 0.1 mM naphthalene, 6 minutes

In the case of `CCCCS(=N)(=O)CCC(N)C(=O)O` (stereo not shown) [BSO, buthionine sulfoximine], the “GSH level in lung, percent of control” value [1] is given as 86%, the “GSH level in liver, percent of control” value ([2]; after BSO, before 200 mg/kg naphthalene) is given as 35% and the “hepatic and pulmonary GSH” value ([2]; mice pretreated with BSO) is given as “hepatic and pulmonary GSH are depleted”. The “GSH depletion, liver versus lung” value ([2]; treatment of mice with BSO) was “depletes GSH in the liver more than in the lung”.

With `c1ccc2ccccc2c1` [naphthalene] the Km ([3]; read-out: Km, N to 1R, 2S NO) was 100 µM, the Km ([3]; read-out: Km, N to 1S, 2R NO) was 400 µM and the “Vmax, N to 1R, 2S NO” value [4] was 9.0 nmol/mg/min. For the same molecule, the “Vmax, N to 1S, 2R NO” value [4] was 1.1 nmol/mg/min, the Km [5] was 307 µM and the “Vmax, N to 1R, 2S NO” value [6] was 6.95 nmol/mg/min. The “Vmax, N to 1S, 2R NO” value [6] was 6.95 nmol/mg/min, the Km ([7]; read-out: Km, N to 1R, 2S NO) was 400 µM and the Km ([7]; read-out: Km, N to 1S, 2R NO) was 1540 µM. The Km ([8]; read-out: Km, N to 1R, 2S NO) was 400 µM, the Km ([8]; read-out: Km, N to 1S, 2R NO) was 800 µM and the LD50 ([9]; female CD-1 mice) was 710 mg/kg. For the same molecule, the LD50 ([9]; male CD-1 mice) was 533 mg/kg, the LD50 ([10]; female Sherman rats) was 2400 mg/kg and the LD50 ([10]; male Sherman rats) was 2200 mg/kg. For the same molecule, the site of toxicity [11] was “toxicity is limited to the Clara cells of the lung”, the Covalently bound [12, 18] was 7.4 nmol/mg and the Diol formed [12, 18] was 4.2 nmol/mg. For the same molecule, the NOH formed [12, 18] was 21.2 nmol/mg, the “observed ratio of conjugates of 1R, 2S and 1S, 2R naphthalene oxide” value ([12]; [N] 0.015 mM, Buckpitt and Franklin, 1989) was 30 and the observed v ([12]; [N] 0.05 mM, O'Brien et al., 1985) was 1.33 nanomoles of product/mg micros. For the same molecule, the observed v ([12]; [N] 0.10 mM, Buckpitt et al., 1984) was 6.01 nanomoles of product/mg micros, the “observed ratio of conjugates of 1R, 2S and 1S, 2R naphthalene oxide” value [12, 19] was 10 and the observed v [12, 19] was 8.3 nanomoles of product/mg micros. For the same molecule, the Covalently bound [13, 20] was 5.8 nmol/mg, the Diol formed [13, 20] was 11.9 nmol/mg and the NOH formed [13, 20] was 3.5 nmol/mg. For the same molecule, the “1R,2S- and 1S,2R-naphthalene oxide enantiomers produced” value ([13]; mouse liver, all substrate concentrations) was “equal amounts”, the “1,2 dihydrodiol formation rate” value [14] was 2.43 nmol/mg/min and the “Conjugate 2 formation rate” value [14] was 3.64 nmol/mg/min. For the same molecule, the “Conjugates 1 and 3 formation rate” value [14] was 3.56 nmol/mg/min, the “liver GSH, percent of the initial concentration” value [15] was 17% and the “observed binding level in liver” value ([16]; with BSO pretreatment) was 1069 pmol/mg. The “observed binding level in liver” value ([16]; without BSO) was 255 pmol/mg, the “experimental covalent binding in lung” value ([17]; 200 mg/kg naphthalene, with BSO pretreatment) was 411 pmol/mg and the “experimental covalent binding in lung” value ([17]; 200 mg/kg naphthalene, without BSO) was 137 pmol/mg. The “experimental increase in lung covalent binding by BSO” value ([17]; 200 mg/kg naphthalene) was 3.0 factor, the “Covalent binding in the lung” value ([17]; 300 mg/kg) was 675 pmol/mg and the “Covalent binding in the lung” value ([17]; 400 mg/kg) was 912 pmol/mg.
